ChEMBL document CHEMBL1201862, “PubChem BioAssay data set” (2004)
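Where inhibition never reached the appropriate level, the endpoint shown equals the highest concentration tested. Otherwise, values were interpolated linearly from a five-concentration, 48-hour dose response in 96-well plates. GI50: concentration for 50% inhibition of growth.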 Active and inactive are the calls of the source. No stated cut-off is given here; in the data, active = GI50 up to about 1.1 µM and inactive = higher.

What was measured:
Experiment in all cases: inhibition of tumour cell growth, NCI panel, 48 h
[1] = system: PC-3
[2] = system: MDA-MB-231
[3] = system: UACC-62
[4] = system: A498
[5] = system: HT-29
[6] = system: SK-MEL-5
[7] = system: EKVX
[8] = system: 786-0
[9] = system: A549
[10] = system: SF-268
[11] = system: NCI-H23
[12] = system: COLO 205
[13] = system: RXF 393
[14] = system: UACC-257
[15] = system: ACHN
[16] = system: MOLT-4
[17] = system: NCI-H522
[18] = system: HOP-62
[19] = system: SK-OV-3
[20] = system: RPMI-8226

| SMILES | GI50 [1] | GI50 [2] | GI50 [3] | GI50 [4] | GI50 [5] | GI50 [6] | GI50 [7] | GI50 [8] | GI50 [9] | GI50 [10] | GI50 [11] | GI50 [12] | GI50 [13] | GI50 [14] | GI50 [15] | GI50 [16] | GI50 [17] | GI50 [18] | GI50 [19] | GI50 [20] |
| --- | --- | --- | --- | --- | --- | --- | --- | --- | --- | --- | --- | --- | --- | --- | --- | --- | --- | --- | --- | --- |
| CC(=O)CSCc1ccccn1 | 33.7 µM (inactive) | 75.9 µM (inactive) | 31.3 µM (inactive) | 51.1 µM (inactive) | 51.3 µM (inactive) | 26 µM (inactive) | 77.1 µM (inactive) | 97.1 µM (inactive) | 62.5 µM (inactive) | 8.87 µM (inactive) | 62.2 µM (inactive) | > 100 µM (inactive) | > 100 µM (inactive) | 41.1 µM (inactive) | 61.5 µM (inactive) | 20.7 µM (inactive) | 6.9 µM (inactive) | 42.4 µM (inactive) | > 100 µM (inactive) | 12.7 µM (inactive) |
| N=C(N)SCc1ccc(Cl)c2ccccc12.O=[N+]([O-])c1c(O)c(Cl)cc(Cl)c1Cl | 11.9 µM (inactive) | 8.22 µM (inactive) | 13.5 µM (inactive) | 9.2 µM (inactive) | 10.2 µM (inactive) | 12.6 µM (inactive) | 7.03 µM (inactive) | 11.3 µM (inactive) | 14.6 µM (inactive) | 15.7 µM (inactive) | 12.9 µM (inactive) | 10.6 µM (inactive) | 7.23 µM (inactive) | 4.72 µM (inactive) | 12.5 µM (inactive) | 5.09 µM (inactive) | 4.56 µM (inactive) | 11.5 µM (inactive) | 13.1 µM (inactive) | 2.64 µM (inactive) |
| C=C(C)c1nc(Oc2ccccc2)nc(Oc2ccccc2)n1 | 14.6 µM (inactive) | 14.1 µM (inactive) | 5.78 µM (inactive) | 17.3 µM (inactive) | 3.99 µM (inactive) | 13.7 µM (inactive) | 13.6 µM (inactive) | 4.58 µM (inactive) | 19.5 µM (inactive) | 4.79 µM (inactive) | 6.64 µM (inactive) | 5.42 µM (inactive) | 2.4 µM (inactive) | 9.55 µM (inactive) | 8.63 µM (inactive) | 0.664 µM (active) | 1.16 µM (inactive) | 16.1 µM (inactive) | 17.6 µM (inactive) | 1.57 µM (inactive) |
| Fc1ccc(N2C(=S)SC(=N\c3ccccc3)/C2=N/c2ccccc2)cc1 | > 16.7 µM (inactive) | > 100 µM (inactive) | > 92 µM (inactive) | > 100 µM (inactive) | 27.1 µM (inactive) | 41.3 µM (inactive) | 97.5 µM (inactive) | > 100 µM (inactive) | > 79.8 µM (inactive) | > 100 µM (inactive) | > 71.9 µM (inactive) | > 100 µM (inactive) | > 100 µM (inactive) | > 67.1 µM (inactive) | > 74.5 µM (inactive) | 5.86 µM (inactive) | > 100 µM (inactive) | > 75 µM (inactive) | > 100 µM (inactive) | 32.8 µM (inactive) |
| OCCN(CCO)CCn1cnc2c(NCc3ccccc3)ncnc21 | > 100 µM (inactive) | > 100 µM (inactive) | > 100 µM (inactive) | > 100 µM (inactive) | > 100 µM (inactive) | > 100 µM (inactive) | > 100 µM (inactive) | > 100 µM (inactive) | > 100 µM (inactive) | > 100 µM (inactive) | > 100 µM (inactive) | > 100 µM (inactive) | > 100 µM (inactive) | > 100 µM (inactive) | > 100 µM (inactive) | > 100 µM (inactive) | > 100 µM (inactive) | > 100 µM (inactive) | > 100 µM (inactive) | > 100 µM (inactive) |
| COC(=O)c1c(C)cccc1/C=C1/Cc2c(C)cccc2C1=O | > 100 µM (inactive) | > 100 µM (inactive) | > 100 µM (inactive) | 88.9 µM (inactive) | > 100 µM (inactive) | 9.93 µM (inactive) | > 100 µM (inactive) | 88.7 µM (inactive) | > 100 µM (inactive) | > 100 µM (inactive) | > 100 µM (inactive) | > 10 µM (inactive) | 25.4 µM (inactive) | 3.1 µM (inactive) | 86.7 µM (inactive) | > 100 µM (inactive) | > 100 µM (inactive) | > 100 µM (inactive) | > 100 µM (inactive) | 3.44 µM (inactive) |
| C=CC1(C)CCC2C(=CCC3C(C)(COC4OC(C(=O)O)C(O)C(O)C4O)C(O)CCC23C)C1.C=CC1(C)CCC2C(=CCC3C2(C)CC(O)C(O)C3(C)COC2OC(C(=O)O)C(O)C(O)C2O)C1 (stereo not given) | 80.4 µM (inactive) | > 100 µM (inactive) | > 100 µM (inactive) | > 100 µM (inactive) | > 100 µM (inactive) | > 100 µM (inactive) | > 100 µM (inactive) | > 100 µM (inactive) | > 100 µM (inactive) | > 100 µM (inactive) | > 100 µM (inactive) | > 100 µM (inactive) | > 100 µM (inactive) | 83.4 µM (inactive) | > 100 µM (inactive) | 13.3 µM (inactive) | > 100 µM (inactive) | > 100 µM (inactive) | > 100 µM (inactive) | > 100 µM (inactive) |
| CN(C)Cc1cc(/N=N/c2ccccc2)cc(CN(C)C)c1O | > 100 µM (inactive) | 71 µM (inactive) | > 100 µM (inactive) | 97.3 µM (inactive) | 73.8 µM (inactive) | > 100 µM (inactive) | > 100 µM (inactive) | 36.2 µM (inactive) | > 100 µM (inactive) | 73.5 µM (inactive) | > 100 µM (inactive) | 20.5 µM (inactive) | 44.7 µM (inactive) | > 100 µM (inactive) | > 100 µM (inactive) | 45.8 µM (inactive) | > 100 µM (inactive) | > 100 µM (inactive) | > 100 µM (inactive) | 80.5 µM (inactive) |
| CC(=O)OCC1=C(C(=O)O)N2C(=O)C(NC(=O)CSc3ccncc3)C2SC1 (stereo not given) | > 100 µM (inactive) | > 100 µM (inactive) | > 100 µM (inactive) | > 100 µM (inactive) | > 100 µM (inactive) | > 100 µM (inactive) | > 100 µM (inactive) | > 100 µM (inactive) | > 100 µM (inactive) | > 100 µM (inactive) | > 100 µM (inactive) | > 100 µM (inactive) | > 100 µM (inactive) | > 100 µM (inactive) | > 100 µM (inactive) | > 100 µM (inactive) | > 100 µM (inactive) | > 100 µM (inactive) | > 100 µM (inactive) | > 100 µM (inactive) |
| CNC=O | > 10000 µM (inactive) | > 10000 µM (inactive) | > 8090 µM (inactive) | > 9710 µM (inactive) | > 10000 µM (inactive) | > 10000 µM (inactive) | > 10000 µM (inactive) | > 10000 µM (inactive) | > 10000 µM (inactive) | > 10000 µM (inactive) | > 10000 µM (inactive) | > 10000 µM (inactive) | > 10000 µM (inactive) | > 10000 µM (inactive) | > 10000 µM (inactive) | > 10000 µM (inactive) | > 10000 µM (inactive) | > 3980 µM (inactive) | > 3980 µM (inactive) | > 10000 µM (inactive) |
